For 14 compounds, TGI and GI50 results are on record in PubChem BioAssay (NCI).

Test systems include ACHN renal; DMS 273 small cell lung; HCT-116 colon; HT29 colon; LOX IMVI melanoma; NCI-H23 lung; SK-MEL-28 melanoma; RXF 393 renal; BT-549 breast; MDA-MB-231 breast.
Experiment in all cases: inhibition of tumour cell growth, NCI panel, 48 h

Several values for one entry are separate records, joined by “and”; a condition that tells them apart may be missing. Equal entries are not always repeated.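 Cultured in 96-well plates, cells were exposed to test compound for 48 hours across five concentrations. At the GI50, growth is halved. TGI denotes the concentration required for complete inhibition of growth.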 Bounds are passed on as bounds.

For the compound `Cc1c(-c2coc(-c3ccc(Cl)cc3)n2)c(=O)n(-c2ccccc2)n1C`, the TGI in the assay on ACHN renal, in the assay with DMS 273 small cell lung, in the assay on HCT-116 colon, in the assay with HT29 colon, in the assay with LOX IMVI melanoma and with NCI-H23 lung was greater than 100 µM in each case. The same compound returned a TGI in the assay with SK-MEL-28 melanoma greater than 100 µM.

`CCN(CC)c1ccc(C(=C2C=CC(=[N+](CC)CC)C=C2)c2ccccc2)cc1`: the TGI with ACHN renal worked out at 0.145 µM; in the assay with DMS 273 small cell lung it was 0.134 µM; in the assay with HCT-116 colon, 0.127 µM; in the assay on LOX IMVI melanoma, 0.105 µM; in the assay on NCI-H23 lung, 0.0929 µM; with RXF 393 renal, 0.0989 µM. In the assay on SK-MEL-28 melanoma, this compound showed a TGI of 0.351 µM.

Take `C=C1C(=O)C[C@@]23CCC[C@@]12CC(O)C3` (stereo partly specified): the TGI in the assay on DMS 273 small cell lung was 45.8 µM; in the assay with HCT-116 colon it was 44.5 µM; in the assay on HT29 colon it was 33.2 µM; in the assay on LOX IMVI melanoma it was 31.3 µM; with NCI-H23 lung it was 53.8 µM; in the assay with RXF 393 renal, 33.8 µM. For the same compound, in the assay on SK-MEL-28 melanoma, the TGI turned out to be 49.8 µM.

In the case of `COc1cc2c(c(OC)c1OC)-c1ccc(SC)c(=O)cc1[C@@H](NC(=O)c1ccc(C#N)cc1)CC2`, the TGI with ACHN renal is greater than 100 µM; in the assay on DMS 273 small cell lung it was greater than 46.3 µM; in the assay on HCT-116 colon it was 12.6 µM; in the assay with HT29 colon, less than 0.01 µM; in the assay on LOX IMVI melanoma, 36.7 µM; in the assay with NCI-H23 lung it was less than 0.01 µM. The compound also returned a TGI with SK-MEL-28 melanoma greater than 100 µM.

As to `CC(=O)c1c(O)c(C)c(O)c2c1OC1=CC(=O)C(C(C)=O)C(=O)C12C` (stereo unspecified), the GI50 with DMS 273 small cell lung is 3.74 µM and 7.53 µM; in the assay with HCT-116 colon, 10.9 µM and 22.3 µM; in the assay with HT29 colon, 6.28 µM and 25.7 µM; in the assay with LOX IMVI melanoma, 5.53 µM and 12.6 µM; in the assay on NCI-H23 lung, 6.72 µM and 18.7 µM; in the assay on RXF 393 renal it was 5.72 µM and 19.2 µM. For the same compound, the TGI was 11.9 µM and 22.5 µM in the assay with DMS 273 small cell lung; 45.7 µM and 66.3 µM with HCT-116 colon; 29.3 µM and 70.2 µM in the assay on HT29 colon; 33.3 µM and 37.9 µM in the assay on LOX IMVI melanoma; 26.6 µM and 49.6 µM in the assay with NCI-H23 lung; 22.8 µM and 43.8 µM in the assay with RXF 393 renal. Further, the TGI with SK-MEL-28 melanoma was 40.9 µM and 22 µM.

Take `CC(=O)Nc1ccc(C(=O)N2N=C(C)/C(=C/c3cccc(O)c3)C2=O)cc1`: the TGI in the assay with ACHN renal, in the assay with DMS 273 small cell lung, in the assay on HCT-116 colon, in the assay with HT29 colon, in the assay on LOX IMVI melanoma and with NCI-H23 lung was greater than 100 µM each time. For the same compound, the TGI in the assay with SK-MEL-28 melanoma was greater than 100 µM.

Consider `CNC(=O)OCC1=C(COC(=O)NC)CN(c2ccccc2)C1`, for which the TGI with ACHN renal, in the assay with BT-549 breast, in the assay on HCT-116 colon, in the assay on HT29 colon, in the assay with LOX IMVI melanoma and in the assay with MDA-MB-231 breast was greater than 100 µM throughout. The TGI with NCI-H23 lung, in the assay with RXF 393 renal and in the assay with SK-MEL-28 melanoma was greater than 100 µM in each case.

As to `CC(C)[Si]1(C(C)C)OCC2OC(n3cnc4c(N)ncnc43)C(N)C2O[Si](C(C)C)(C(C)C)O1` (stereo unspecified), the TGI in the assay with ACHN renal stood at 21.6 µM; in the assay on BT-549 breast it was 14.3 µM; in the assay on HCT-116 colon, 16.9 µM; with HT29 colon, 26.9 µM; in the assay on LOX IMVI melanoma, 21.3 µM; with MDA-MB-231 breast it was 33.1 µM. Further, the figures for the TGI with NCI-H23 lung, in the assay on RXF 393 renal and in the assay with SK-MEL-28 melanoma were 26.5 µM, 27.1 µM and greater than 72.1 µM, respectively.

For the compound `Clc1ccccc1C1=NN(c2ccccc2)C2c3cc(Br)ccc3OCC12` (stereo unspecified), the TGI in the assay on ACHN renal, in the assay on DMS 273 small cell lung, in the assay on HCT-116 colon, with HT29 colon, in the assay with NCI-H23 lung and in the assay with RXF 393 renal was greater than 100 µM each time. The TGI in the assay on SK-MEL-28 melanoma was greater than 100 µM.

For the compound `Cc1[nH]c(=O)nc(N/N=C/c2ccc(O)cc2)c1C(=O)Nc1ccc(Cl)cc1`, the TGI in the assay on ACHN renal, in the assay with DMS 273 small cell lung, with HCT-116 colon and in the assay on SK-MEL-28 melanoma was greater than 100 µM throughout.

On to `COc1cc2cc3c4c(cc(OC)c(OC)c4c2cc1OC)CCN3C(=O)OCCBr`, for which the TGI in the assay with ACHN renal, with DMS 273 small cell lung, in the assay with HCT-116 colon, in the assay with HT29 colon, with LOX IMVI melanoma and in the assay on NCI-H23 lung was greater than 100 µM throughout. In addition, the TGI in the assay with RXF 393 renal and in the assay with SK-MEL-28 melanoma was greater than 100 µM in each case.

As for `O=C(Cc1nc2ccc([N+](=O)[O-])cc2[nH]c1=O)C(=O)Nc1cc(Cl)c(Cl)cc1Cl`, the TGI in the assay on ACHN renal, with BT-549 breast, in the assay with HCT-116 colon, with HT29 colon, with LOX IMVI melanoma and with MDA-MB-231 breast was greater than 100 µM throughout. The TGI with NCI-H23 lung, in the assay with RXF 393 renal and in the assay with SK-MEL-28 melanoma was greater than 100 µM throughout.

For the compound `CC(C)CC1c2[nH]c3ccccc3c2C[C@H]2C(=O)NC(COC(C)(C)C)C(=O)N12` (stereo partly specified), the TGI amounted to 88.4 µM in the assay with ACHN renal; 60.9 µM in the assay with BT-549 breast; 37.9 µM with HCT-116 colon; 38.3 µM in the assay with HT29 colon; 34.7 µM in the assay on LOX IMVI melanoma; 38.8 µM in the assay with MDA-MB-231 breast. Moreover, the results for the TGI in the assay on NCI-H23 lung, in the assay on RXF 393 renal and with SK-MEL-28 melanoma were 91.3 µM, 41 µM and greater than 100 µM, respectively.

As for `Fc1nc(F)nc(-c2c3ccccc3c3n2CCS3)n1`, the TGI with ACHN renal, in the assay with DMS 273 small cell lung, with HCT-116 colon, with HT29 colon, with LOX IMVI melanoma and in the assay with NCI-H23 lung was greater than 100 µM in each case. For the same compound, the TGI in the assay with RXF 393 renal and in the assay on SK-MEL-28 melanoma was greater than 100 µM in each case.
